Results: patent US20040147607A1, “Stable gabapentin having pH within a controlled range” (priority 2000, published 2004)

Columns and labels:
[1] = pH of purified gabapentin / gabapentin tablets; format: physicochemical
[2] = Storage stability: conversion of gabapentin to its corresponding lactam (HPLC vs. standard); format: physicochemical; conditions: gabapentin pure; for conversion of gabapentin to its corresponding lactam: after a year of storage at 25° C. and 60% relative humidity
Description: Gabapentin purified according to these procedures contains less than 0.5% lactam as measured by HPLC vs. standard. After a year of storage at 25° C. and 60% relative humidity, the conversion of gabapentin to its corresponding lactam is measured not to exceed 0.2% by weight of gabapentin.

cardiozole cramp = conditions: in animals; U.S. Pat. No. 4,024,175; cited from earlier work
[3] = according to Augart (U.S. Pat. No. 6,054,482); cited from earlier work
[4] = gabapentin pure after the reslurry in methanol (Examples 2, 3: basic agent added)
[5] = gabapentin pure after crystallization in methanol (Examples 11-16: basic agent added)

In the case of `NCC1(CC(=O)O)CCCCC1` [Example 1, 1-(aminomethyl)-1-cyclohexaneacetic acid], the pH [1, 4] is reported as 6.84-7.04 and the “conversion of gabapentin to its corresponding lactam” value (shortened to “conversion of gabapentin”) [2] is reported as ≤ 0.2 % by weight of gabapentin.
For `NCC1(CC(=O)O)CCCCC1` [Example 2, 1-(aminomethyl)-1-cyclohexaneacetic acid], the pH [1, 4] was 7.15 and the “conversion of gabapentin” value [2] was ≤ 0.2 % by weight of gabapentin.
With `NCC1(CC(=O)O)CCCCC1` [Example 3, 1-(aminomethyl)-1-cyclohexaneacetic acid] the pH [1, 4] was 6.8 and the “conversion of gabapentin” value [2] was ≤ 0.2 % by weight of gabapentin.
In the case of `NCC1(CC(=O)O)CCCCC1` [Example 4, 1-(aminomethyl)-1-cyclohexaneacetic acid], the “conversion of gabapentin” value [2] is reported as ≤ 0.2 % by weight of gabapentin.
In the case of `NCC1(CC(=O)O)CCCCC1` [Example 11, 1-(aminomethyl)-1-cyclohexaneacetic acid], the pH [1, 5] is reported as 7.25 and the “conversion of gabapentin” value [2] is reported as ≤ 0.2 % by weight of gabapentin.
For `NCC1(CC(=O)O)CCCCC1` [Example 12, 1-(aminomethyl)-1-cyclohexaneacetic acid], the pH [1, 5] was 7.08, the “conversion of gabapentin” value [2] was ≤ 0.2 % by weight of gabapentin and the “amount of lactam after storage” value ([2]; after a year of storage at 55° C. and 50% relative humidity) was “less than 0.5 % by weight”.
In the case of `NCC1(CC(=O)O)CCCCC1` [Example 13, 1-(aminomethyl)-1-cyclohexaneacetic acid], the pH [1, 5] is reported as 7.28, the “amount of lactam after storage” value ([2]; after a year of storage at 25° C. and 50% relative humidity) is reported as “less than 0.5 % by weight” and the “conversion of gabapentin” value [2] is reported as ≤ 0.2 % by weight of gabapentin.
With `NCC1(CC(=O)O)CCCCC1` [Example 14, 1-(aminomethyl)-1-cyclohexaneacetic acid] the pH [1, 5] was 7.03.
In the case of `NCC1(CC(=O)O)CCCCC1` [Example 15, 1-(aminomethyl)-1-cyclohexaneacetic acid], the pH [1, 5] is reported as 7.22.
Work on `NCC1(CC(=O)O)CCCCC1` [Example 16, 1-(aminomethyl)-1-cyclohexaneacetic acid] yielded a pH [1, 5] of 7.17.
For `NCC1(CC(=O)O)CCCCC1` [gabapentin, 1-(aminomethyl)-1-cyclohexaneacetic acid], the “protective effect against cardiozole cramp” value (cardiozole cramp) is given as “protective effect against cardiozole cramp”.
For `O=C1CC2(CCCCC2)CN1` [lactam], the “toxicity compared with gabapentin” value [3] is given as “higher toxicity than gabapentin”.
